Test [1] addresses Adenosine A2A receptor (Tag-lite Adenosine A2A labeled cells) (Homo sapiens (Human), UniProt P29274). The test is described as follows: A2A Tag-lite HTRF Assay. The test is classed as binding. As to conditions: displacement of Adenosine A2A Receptor Red antagonist fluorescent ligand, 12.5 nM. From the text: The final concentration of DMSO was 1%.
A general note: TR-FRET usually uses a lanthanide donor and a delayed reading to cut background.

Test [2] deals with human adenosine A2B receptor (Homo sapiens (Human), UniProt P29275). The test is described as follows: Adenosine A2B Receptor Cyclic AMP GS Assay. As to conditions: HEK-293 cells, agonist NECA at 12 nM, cAMP accumulation; read-out: A2B—cAMP_EC50. The test is classed as cell-based. As for the experimental part:
Stably transfected HEK-293 cells expressing the human adenosine A2B receptor (Perkin Elmer) were maintained in MEM culture medium with 10% FBS and 100 μg/mL Geneticin (Life Technologies). 18 to 24 hours prior to assay, geneticin was removed from culture. The cisbio cAMP-GS Dynamic kit utilizing the FRET (Fluorescence Resonance Energy Transfer) technology was used to measure cAMP accumulation in the cells. Compounds of the present disclosure at an appropriate concentration were mixed with 10000 cells/well in white 96 well half area plates (Perkin Elmer) for 30 min at room temperature gently shaking. Agonist, NECA (R&D Technologies) at 12 nM was added to each well for 60 min at room temperature gently shaking. Detection reagents, d2-labeled cAMP (acceptor) and anti-cAMP cryptate (donor) were added to each well for 60 min at RT gently shaking. Plates were read on Pherastar (BMG Labtech), fluorescence ratio 665/620 was calculated and EC50 determination was performed by fitting the curve of percent of control versus the log of the compound concentration using GraphPad Prism.
On the technique in general: Changes in cAMP serve as a functional read-out for many G protein-coupled receptors.

Where only a bound is given, the exact number is not on record here.

Adenosine A2A receptor (Tag-lite Adenosine A2A labeled cells), sequence (P29274 whole entry): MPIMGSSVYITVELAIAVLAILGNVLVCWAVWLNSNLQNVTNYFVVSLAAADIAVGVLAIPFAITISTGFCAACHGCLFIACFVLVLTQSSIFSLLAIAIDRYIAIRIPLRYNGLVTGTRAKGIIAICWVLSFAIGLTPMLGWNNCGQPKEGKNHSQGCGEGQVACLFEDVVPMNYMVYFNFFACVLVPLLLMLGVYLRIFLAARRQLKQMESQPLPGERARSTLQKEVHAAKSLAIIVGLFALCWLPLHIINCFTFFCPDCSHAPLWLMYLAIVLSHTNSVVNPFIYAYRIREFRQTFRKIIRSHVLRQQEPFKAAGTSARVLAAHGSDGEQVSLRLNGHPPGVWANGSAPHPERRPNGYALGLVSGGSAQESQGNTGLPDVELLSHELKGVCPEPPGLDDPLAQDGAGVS
human adenosine A2B receptor, sequence (P29275 whole entry): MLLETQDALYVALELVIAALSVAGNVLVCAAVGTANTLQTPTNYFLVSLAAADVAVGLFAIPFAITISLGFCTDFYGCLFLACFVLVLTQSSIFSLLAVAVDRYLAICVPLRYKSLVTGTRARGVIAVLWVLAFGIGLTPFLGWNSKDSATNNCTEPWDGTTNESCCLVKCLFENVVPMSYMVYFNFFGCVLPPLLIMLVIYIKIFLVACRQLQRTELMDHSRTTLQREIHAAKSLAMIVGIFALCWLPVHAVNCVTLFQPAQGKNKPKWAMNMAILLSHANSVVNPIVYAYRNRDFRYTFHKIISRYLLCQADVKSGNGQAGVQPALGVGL

As to `N#Cc1cccc(-c2nc(N)c3nn(Cc4ccccn4)cc3c2-c2ccncn2)c1` [Example 8, 3-(7-amino-2-(pyridin-2-ylmethyl)-4-(pyrimidin-4-yl)-2H-pyrazolo[3,4-c]pyridin-5-yl)benzonitrile], the inhibition constant (Ki) (commonly a dissociation constant, usually derived from enzyme kinetics or from competition with a known ligand) in test [1] was not above 10 nM. Besides, the EC50 in test [2] was not above 10 nM.
`CC(c1ccccn1)n1nc2c(N)nc(-c3cccc(C#N)c3)c(-c3ccncn3)c2n1` (stereo not shown) [Example 47, 3-(4-amino-2-(1-(pyridin-2-yl)ethyl)-7-(pyrimidin-4-yl)-2H-[1,2,3]triazolo[4,5-c]pyridin-6-yl)benzonitrile] showed a Ki in test [1] not above 10 nM. Moreover, the EC50 in test [2] was in the range of 100 to 1000 nM.
With `Cc1nc(CO)c(-c2c(-c3cccc(C#N)c3)nc(N)c3nn(Cc4ccccn4)nc23)o1` [Example 20, 3-(4-amino-7-(4-(hydroxymethyl)-2-methyloxazol-5-yl)-2-(pyridin-2-ylmethyl)-2H-[1,2,3]triazolo[4,5-c]pyridin-6-yl)benzonitrile], in test [1], the Ki is not above 10 nM. In addition, the EC50 in test [2] was not above 10 nM.
In turn, `Cc1cccc(Cn2cc3c(-c4ccncn4)c(-c4cccc(C#N)c4)nc(N)c3n2)n1` [Example 10, 3-(7-amino-2-((6-methylpyridin-2-yl)methyl)-4-(pyrimidin-4-yl)-2H-pyrazolo[3,4-c]pyridin-5-yl)benzonitrile] showed a Ki in test [1] not above 10 nM. In test [2], the EC50 is not above 10 nM.
Turning to `CCn1nccc1-c1c(-c2cccc(C#N)c2)nc(N)c2nn(Cc3ncccc3F)cc12` [Example 14, 3-(7-amino-4-(1-ethyl-1H-pyrazol-5-yl)-2-((3-fluoropyridin-2-yl)methyl)-2H-pyrazolo[3,4-c]pyridin-5-yl)benzonitrile], the inhibition constant (Ki) in test [1] is not above 10 nM. Further, in test [2], the EC50 is not above 10 nM.
With `N#Cc1cccc(-c2nc(N)c3nn(Cc4ccccn4)nc3c2-c2ccncn2)c1` [Example 16, 3-(4-amino-2-(pyridin-2-ylmethyl)-7-(pyrimidin-4-yl)-2H-[1,2,3]triazolo[4,5-c]pyridin-6-yl)benzonitrile], in test [1], the inhibitory constant (Ki) was not above 10 nM. For the same compound, in test [2], the EC50 is not above 10 nM.
`N#Cc1cccc(-c2nc(N)c3cn(Cc4ncccc4F)nc3c2-c2ccncn2)c1` [Example 3, 3-(4-amino-2-((3-fluoropyridin-2-yl)methyl)-7-(pyrimidin-4-yl)-2H-pyrazolo[4,3-c]pyridin-6-yl)benzonitrile]: in test [1], the Ki is not above 10 nM. Besides, in test [2], the EC50 was in the range of 10 to 100 nM.
The compound `Cc1nc(CO)c(-c2c(-c3cccc(C#N)c3F)nc(N)c3nn(Cc4ccccn4)nc23)o1` [Example 42, 3-(4-amino-7-(4-(hydroxymethyl)-2-methyloxazol-5-yl)-2-(pyridin-2-ylmethyl)-2H-[1,2,3]triazolo[4,5-c]pyridin-6-yl)-2-fluorobenzonitrile] gave an inhibitory constant (Ki) in test [1] not above 10 nM. Moreover, the EC50 in test [2] fell in the range of 10 to 100 nM.
`Cc1ncoc1-c1c(-c2cccc(C#N)c2)nc(N)c2nn(Cc3ccccn3)cc12` [Example 12, 3-(7-amino-4-(4-methyloxazol-5-yl)-2-(pyridin-2-ylmethyl)-2H-pyrazolo[3,4-c]pyridin-5-yl)benzonitrile] returned an inhibition constant Ki in test [1] not above 10 nM. For the same compound, the EC50 in test [2] is 10 to 100 nM.
In test [1], `N#Cc1cccc(-c2nc(N)c3cn(Cc4ccccc4F)nc3c2-c2ccncn2)c1` [Example 7, 3-(4-amino-2-(2-fluorobenzyl)-7-(pyrimidin-4-yl)-2H-pyrazolo[4,3-c]pyridin-6-yl)benzonitrile] displayed an inhibitory constant (Ki) not above 10 nM. In addition, the EC50 in test [2] was not above 10 nM.
With `CCn1nccc1-c1c(-c2cccc(C#N)c2F)nc(N)c2nn(Cc3ccccn3)nc12` [Example 38, 3-(4-amino-7-(1-ethyl-1H-pyrazol-5-yl)-2-(pyridin-2-ylmethyl)-2H-[1,2,3]triazolo[4,5-c]pyridin-6-yl)-2-fluorobenzonitrile], the Ki in test [1] was not above 10 nM. In test [2], the EC50 is not above 10 nM.
In the case of `Cc1ncoc1-c1c(-c2cccc(C#N)c2)nc(N)c2nn(CCc3ccccn3)nc12` [Example 48, 3-(4-amino-7-(4-methyloxazol-5-yl)-2-(2-(pyridin-2-yl)ethyl)-2H-[1,2,3]triazolo[4,5-c]pyridin-6-yl)benzonitrile], in test [1], the Ki is not above 10 nM. In addition, in test [2], the EC50 was 10 to 100 nM.
Take `CCn1nccc1-c1c(-c2cccc(C#N)c2)nc(N)c2nn(Cc3cccc(C)n3)cc12` [Example 11, 3-(7-amino-4-(1-ethyl-1H-pyrazol-5-yl)-2-((6-methylpyridin-2-yl)methyl)-2H-pyrazolo[3,4-c]pyridin-5-yl)benzonitrile]: the inhibition constant (Ki) in test [1] is not above 10 nM. Further, the EC50 in test [2] lay within 10 to 100 nM.
With `Cc1cccc(Cn2nc3c(N)nc(-c4cccc(C#N)c4)c(-c4ccc(=O)n(C)c4)c3n2)n1` [Example 27, 3-(4-amino-7-(1-methyl-6-oxo-1,6-dihydropyridin-3-yl)-2-((6-methylpyridin-2-yl)methyl)-2H-[1,2,3]triazolo[4,5-c]pyridin-6-yl)benzonitrile], the inhibition constant (Ki) in test [1] was not above 10 nM. Moreover, the EC50 in test [2] was 10 to 100 nM.
For `CCn1nccc1-c1c(-c2cccc(C#N)c2)nc(N)c2nn(Cc3ccccn3)cc12` [Example 9, 3-(7-amino-4-(1-ethyl-1H-pyrazol-5-yl)-2-(pyridin-2-ylmethyl)-2H-pyrazolo[3,4-c]pyridin-5-yl)benzonitrile], in that order: not above 10 nM and not above 10 nM.
In test [1], `N#Cc1cccc(-c2nc(N)c3nn(Cc4ccccn4)nc3c2-c2ccc3ncccc3c2)c1` [Example 22, 3-(4-amino-2-(pyridin-2-ylmethyl)-7-(quinolin-6-yl)-2H-[1,2,3]triazolo[4,5-c]pyridin-6-yl)benzonitrile] registered an inhibition constant (Ki) not above 10 nM. Besides, the EC50 in test [2] was not above 10 nM.
In test [1], `Cc1cccc(Cn2nc3c(N)nc(-c4cccc(C#N)c4)c(-c4ccncc4)c3n2)n1` [Example 25, 3-(4-amino-2-((6-methylpyridin-2-yl)methyl)-7-(pyridin-4-yl)-2H-[1,2,3]triazolo[4,5-c]pyridin-6-yl)benzonitrile] displayed a Ki not above 10 nM. Also, the EC50 in test [2] is not above 10 nM.
Consider `CC(C)n1nccc1-c1c(-c2cccc(C#N)c2)nc(N)c2nn(Cc3ncccc3F)nc12` [Example 34, 3-(4-amino-2-((3-fluoropyridin-2-yl)methyl)-7-(1-isopropyl-1H-pyrazol-5-yl)-2H-[1,2,3]triazolo[4,5-c]pyridin-6-yl)benzonitrile], for which the Ki in test [1] is not above 10 nM. The EC50 in test [2] is not above 10 nM.
Consider `Cn1ccc(Cn2nc3c(N)nc(-c4cccc(C#N)c4)c(-c4ccncn4)c3n2)n1` [Example 44, 3-(4-amino-2-((1-methyl-1H-pyrazol-3-yl)methyl)-7-(pyrimidin-4-yl)-2H-[1,2,3]triazolo[4,5-c]pyridin-6-yl)benzonitrile], for which the Ki in test [1] was not above 10 nM. The EC50 in test [2] was not above 10 nM.
For the compound `Cc1ncoc1-c1c(-c2cccc(C#N)c2F)nc(N)c2nn(Cc3ccccn3)nc12` [Example 41, 3-(4-amino-7-(4-methyloxazol-5-yl)-2-(pyridin-2-ylmethyl)-2H-[1,2,3]triazolo[4,5-c]pyridin-6-yl)-2-fluorobenzonitrile], the Ki in test [1] was not above 10 nM. Also, the EC50 in test [2] was not above 10 nM.

Values taken from patent publication US11390624B2, “Pyrazolopyridines and triazolopyridines as A2A / A2B inhibitors” (Incyte Corporation, priority 2019, dated 2022).
